Measured values: US20110046378A1, “Novel Imaging Agents for Detecting Neurological Dysfunction” (SIEMENS MEDICAL SOLUTIONS USA, INC., priority 2008, published 2011)
Where two headings read alike, the source gives them in different places.

Tests used:
[1] = target: Aβ(1-42) Oligomers/Polymers (Homo sapiens, UniProt P05067); assay: Biacore (SPR) screening on immobilized Aβ42 oligomers/soluble polymers; format: binding; design: Binding to oligomers/polymers (Aβ1-42): key to the marks not given beside the values; conditions: for BINDING LEVELS TO Aβ(1-42) Oligomers/Polymers: screening compounds at 10 uM; for Binding to oligomers/polymers (Aβ1-42): carbazole-based hits
[2] = target: Aβ(1-42) Fibrils (Homo sapiens, UniProt P05067); assay: Biacore (SPR) screening on immobilized Aβ42 fibrils; format: binding; conditions: for BINDING LEVELS TO Aβ(1-42) Fibrils: screening compounds at 10 uM; for Binding to fibrils (Aβ1-42): carbazole-based hits;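 for BINDING LEVELS TO Aβ(1-42) Fibrils: minus means no binding and more plus signs mean higher affinity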
[3] = tested on: Aβ monomer; conditions: read-out: Binding Affinity IC50; cited from earlier work
[4] = target: T1, Amyloid (AD patient's brain slice) (Homo sapiens, UniProt P05067); assay: IC50 determination with [18F]-PiB by ex vivo competition assay using autoradiography staining; format: binding
T1 construct: The brain slices were 20 um thick
Source text: (§1) Ex Vivo Competition Assay Using Amyloid (AD patient's brain slice) Autoradiography Staining

[5] = tested on: Amyloid (AD patient's brain slice); assay: Amyloid autoradiography staining of AD patient's brain slices, grey/white matter binding with wash protocols; design: species or system human
Procedure: as §1
A study was conducted to examine the grey to white matter binding ratios for 4 different tracers: CB-001, CB-003, FDDNP and F-PiB (FIG. 7 and FIG. 8). […] After the human brain slices from AD patients were incubated with a given tracer for 30 min, the slices were washed with various EtOH:water solutions in an attempt to optimize the grey-to white matter ratios (FIG. 9). The results were surprising and unexpected in view of previous work performed by other researchers. CB-001 has a slightly higher c Log P than FDDNP (3.8 vs 3.4) and would be expected to have poorer washout than FDDNP based on these values. […] More specifically, the white matter binding of FDDNP is several shades darker than CB-001's white matter binding, indicating low non-specific binding of CB-001.

[6] = tested on: Amyloid (AD brain slices); assay: [18F]-CB001 competition studies on AD brain slices; format: binding, human; conditions: cold competitor, increasing concentrations
[7] = determination 1, vs [18F]-PiB, read-out: IC50 1
[8] = determination 3, vs [18F]-PiB, read-out: IC50 3
[9] = determination 5, vs [18F]-PiB, read-out: IC50 5
[10] = determination 6, vs [18F]-PiB, read-out: IC50 6
[11] = determination 13, vs [18F]-PiB, read-out: IC50 13
[12] = mean of determinations, vs [18F]-PiB, read-out: Average IC50
[13] = determination 4, vs [18F]-PiB, read-out: IC50 4
[14] = determination 7, vs [18F]-PiB, read-out: IC50 7

Aβ(1-42) Fibrils, sequence (P05067 672-713 limits assumed): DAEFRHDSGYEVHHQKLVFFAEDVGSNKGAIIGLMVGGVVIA
Aβ(1-42) Oligomers/Polymers, sequence (P05067 672-713 limits assumed): as above
T1 sequence (P05067 672-711 limits assumed): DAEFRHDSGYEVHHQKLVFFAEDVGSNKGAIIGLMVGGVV

Row | SMILES | BINDING LEVELS TO Aβ(1-42) Oligomers/Polymers [1] | BINDING LEVELS TO Aβ(1-42) Fibrils [2] | other results
1 | Nc1ccc2[nH]c(C(F)(F)F)nc2c1 | ++ | + | 
2 | O=c1cc(-c2ccccc2)oc2ccc(O)cc12 | ++ | + | 
3 | O=c1cc(-c2ccccc2)oc2cc(O)ccc12 | + | + | 
4 | O=c1c(O)c(-c2ccccc2)oc2ccc(O)cc12 | +++ | ++ | 
5 | O=c1c(O)c(-c2ccc(O)c(O)c2)oc2cc(O)ccc12 | ++++++ | +++++ | 
6 | COc1cccc2oc(-c3ccccc3)cc(=O)c12 | + | − | 
7 | O=c1cc(-c2ccccc2)c2ccc(O)c(O)c2o1 | +++++ | +++ | 
8 | Cc1c(-c2ccccc2)c(=O)oc2cc(O)ccc12 | + | − | 
9 | Oc1cnc(Cl)c2ccccc12 | + | − | 
10 | Cc1ccc(O)c(-c2ccno2)c1 | + | + | 
11 | CC1NCCc2cc(O)c(O)cc21 (centres unmarked) | ++ | + | 
12 | Nc1ccc(O)c2ncccc12 | ++ | + | 
13 | Cc1oc2cc(O)ccc2c(=O)c1-c1nncn1-c1ccccc1 | ++ | + | 
14 | CCOc1ccc2c(=O)c(Oc3ccccc3)c(C)oc2c1 | + | + | 
15 | CCOc1ccc(Oc2c(C)oc3cc(O)ccc3c2=O)cc1 | + | − | 
16 | CCc1cc2c(=O)c(-c3ccc(F)cc3)c(C)oc2cc1O | + | − | 
17 | COc1ccc2c(=O)c(-c3ccccc3)c(C)oc2c1OC | + | − | 
18 | Cc1oc2c(C)c(O)ccc2c(=O)c1-c1nncn1-c1ccccc1 | ++ | − | 
19 | O=c1c(O)c(-c2ccccc2)[nH]c2ccccc12 | ++++ | ++ | 
20 | Cc1c(-c2ccccc2)oc2cc(O)ccc2c1=O | + | + | 
21 | COc1ccc2oc(-c3ccc(OC)c(OC)c3)c(OC)c(=O)c2c1 | +++ | + | 
22 | COc1cccc(-c2oc3cc(OC)ccc3c(=O)c2OC)c1 | + | − | 
23 | O=c1c(O)c(-c2cccc(O)c2)oc2ccc(O)cc12 | ++++ | ++ | 
24 | Cc1oc2cc(O)ccc2c(=O)c1-c1ccc(F)cc1 | + | + | 

Row | SMILES | BINDING LEVELS TO Aβ(1-42) Oligomers/Polymers [1] | BINDING LEVELS TO Aβ(1-42) Fibrils [2] | other results
25 | COc1c(-c2ccco2)oc2ccccc2c1=O | + | + | 
26 | Cc1cc(C)c2oc(-c3ccco3)c(O)c(=O)c2c1 | + | − | 
27 | Cc1cc(C)c2oc(-c3cccs3)c(O)c(=O)c2c1 | + | − | 
28 | Fc1ccc(-c2cn(-c3cccc(C(F)(F)F)c3)nn2)c(F)c1 | + | + | 
29 | Fc1ccc(-c2cn(-c3ccc(Cl)c(Cl)c3)nn2)c(F)c1 | + | − | 
30 | Fc1cc(F)cc(-c2cn(-c3cc(Cl)ccc3Cl)nn2)c1 | + | − | 
31 | Fc1cc(F)cc(-c2cn(-c3ccc(F)cc3F)nn2)c1 | ++++ | − | 
32 | Nc1cccc(-c2cn(-c3cc(Cl)cc(Cl)c3)nn2)c1 | + | + | 
33 | C[S+]([O-])c1ccc(-c2nc(-c3ccc(F)cc3)c(-c3ccncc3)[nH]2)cc1 (centres unmarked) | ++ | + | 
34 | Oc1ccc(-c2nc(-c3ccncc3)c(-c3ccc(F)cc3)[nH]2)cc1 | ++ | ++ | 
35 | Fc1ccc(-c2nc(-c3ccccc3)c(-c3ccccc3)[nH]2)cc1 |  | − | 
36 | O=S(=O)(O)c1cccc2cccc(Nc3ccccc3)c12 [ANS] |  |  | IC50 [3]: > 100000 nM
37 | CNc1ccc2c(c1)[nH]c1cc(OCCOCCOCCF)ccc12 [CB-004, 7-(2-(2-(2-fluoroethoxy)ethoxy)ethoxy)-N-methyl-9H-carbazol-2-amine] |  |  | IC50 [4, 7]: 260 nM; IC50 [4, 8]: 350 nM; IC50 [4, 9]: 300 nM; IC50 [4, 10]: 300 nM; IC50 [4, 11]: 400 nM; IC50 [4, 12]: 322 nM
38 | CN(C)c1ccc2c(c1)[nH]c1cc(OCCOCCOCCF)ccc12 [CB-007, 7-(2-(2-(2-fluoroethoxy)ethoxy)ethoxy)-N,N-dimethyl-9H-carbazol-2-amine] |  |  | IC50 [4, 7]: 260 nM; IC50 [4, 8]: 170 nM; IC50 [4, 9]: 200 nM; IC50 [4, 10]: 290 nM; IC50 [4, 11]: 300 nM; IC50 [4, 12]: 244 nM
39 | O=CNc1ccc2c(c1)[nH]c1cc(OCCOCCOCCF)ccc12 [CB-010, N-(7-(2-(2-(2-fluoroethoxy)ethoxy)ethoxy)-9H-carbazol-2-yl)formamide] |  |  | IC50 [4, 13]: 900 nM; IC50 [4, 12]: 900 nM
40 | O=CNc1ccc2c(c1)[nH]c1cc(OCCF)ccc12 [CB-012, N-(7-(2-fluoroethoxy)-9H-carbazol-2-yl)formamide] |  |  | IC50 [4, 13]: 610 nM; IC50 [4, 9]: 300 nM; IC50 [4, 10]: 450 nM; IC50 [4, 14]: 390 nM; IC50 [4, 12]: 438 nM
41 | O=CNc1ccc2c(c1)[nH]c1cc(OCCOCCF)ccc12 [CB-024, N-(7-(2-(2-fluoroethoxy)ethoxy)-9H-carbazol-2-yl)formamide] |  |  | IC50 [4, 14]: 540 nM; IC50 [4, 12]: 540 nM
42 | CC(=C(C#N)C#N)c1ccc2cc(N(C)CCF)ccc2c1 [FDDNP, reference compound] |  |  | Grey/white matter binding ratio using mild wash conditions ([5]; 30 min incubation, PBS, 30%/40%/20% EtOH:water, PBS, 20 um AD brain slices): Poor; Grey/white matter binding ratio using harsh FDDNP wash conditions ([5]; 30 min incubation, PBS, 70%/90%/70% EtOH:water, PBS, 20 um AD brain slices): Fair; order of (non-specific) white matter binding ([5]; AD brain slices): FDDNP>CB001>[18F]-PiB>CB003; blocking of [18F]-CB001 staining [6]: much less capable of blocking [18F]-CB001 staining
43 | [11CH3]Nc1ccc(-c2nc3ccc(O)cc3s2)cc1 [PiB, reference compound] |  |  | blocking of [18F]-CB001 staining [6]: blocks [18F]-CB001 staining with increasing concentrations
44 | Cc1nccc2c1[nH]c1cc(O)ccc12 [drawing 32] | ++ | + | 
45 | Oc1ccc2c(c1)[nH]c1ccccc12 [drawing 33] | +++ | + | 
46 | Cc1nccc2c1[nH]c1cc(O)ccc12 [drawing 134] |  |  | Binding to oligomers/polymers (Aβ1-42) [1]: ++; Binding to fibrils (Aβ1-42) [2]: +
47 | Oc1ccc2c(c1)[nH]c1ccccc12 [drawing 135] |  |  | Binding to oligomers/polymers (Aβ1-42) [1]: +++; Binding to fibrils (Aβ1-42) [2]: +
